Measured values taken from US11142560B2, “Biphasic single-chain insulin analogues” (Case Western Reserve University, priority 2014, dated 2021).
Bridge positions count the residues as written; N and C are the ends. Ends that are not written are not given here.

Molecular target: A isoform of the insulin receptor (Homo sapiens, UniProt P06213)
Assay: Receptor-binding assay, insulin receptor A isoform
Conditions: two-site sequential model, read-out: equilibrium dissociation constant / binding constant
Description: The receptor-binding affinities of SCI-57DP and SCI-57PE were determined in relation to wild-type human insulin. The assay employed the A isoform of the insulin receptor. […] The protocol for assay of receptor-binding activities was as follows. Microtiter strip plates (Nunc Maxisorb) were incubated overnight at 4° C. with AU5 IgG (100 μl/well of […] in phosphate-buffered saline). Binding data were analyzed by a two-site sequential model.

A isoform of the insulin receptor, sequence (P06213 28-746 isoform P06213-2 limits assumed): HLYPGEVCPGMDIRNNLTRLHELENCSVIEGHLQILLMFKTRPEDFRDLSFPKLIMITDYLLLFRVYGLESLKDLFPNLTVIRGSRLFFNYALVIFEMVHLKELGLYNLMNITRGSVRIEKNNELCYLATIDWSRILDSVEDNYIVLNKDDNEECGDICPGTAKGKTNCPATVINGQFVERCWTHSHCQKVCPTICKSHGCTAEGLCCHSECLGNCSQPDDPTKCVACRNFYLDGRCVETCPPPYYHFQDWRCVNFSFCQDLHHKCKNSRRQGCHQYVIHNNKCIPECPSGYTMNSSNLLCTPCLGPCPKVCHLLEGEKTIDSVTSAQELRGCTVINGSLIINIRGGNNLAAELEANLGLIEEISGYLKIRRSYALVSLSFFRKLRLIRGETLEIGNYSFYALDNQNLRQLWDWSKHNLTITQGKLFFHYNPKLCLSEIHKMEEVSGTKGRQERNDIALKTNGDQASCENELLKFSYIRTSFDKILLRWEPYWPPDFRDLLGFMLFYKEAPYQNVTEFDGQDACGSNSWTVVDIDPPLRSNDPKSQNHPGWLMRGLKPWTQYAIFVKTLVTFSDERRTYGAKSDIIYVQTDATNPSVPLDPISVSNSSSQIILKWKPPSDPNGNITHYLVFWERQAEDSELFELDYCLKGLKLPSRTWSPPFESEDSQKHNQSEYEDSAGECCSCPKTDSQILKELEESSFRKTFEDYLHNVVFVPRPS
A isoform of the insulin receptor, sequence (P06213 763-1382 partner limits assumed): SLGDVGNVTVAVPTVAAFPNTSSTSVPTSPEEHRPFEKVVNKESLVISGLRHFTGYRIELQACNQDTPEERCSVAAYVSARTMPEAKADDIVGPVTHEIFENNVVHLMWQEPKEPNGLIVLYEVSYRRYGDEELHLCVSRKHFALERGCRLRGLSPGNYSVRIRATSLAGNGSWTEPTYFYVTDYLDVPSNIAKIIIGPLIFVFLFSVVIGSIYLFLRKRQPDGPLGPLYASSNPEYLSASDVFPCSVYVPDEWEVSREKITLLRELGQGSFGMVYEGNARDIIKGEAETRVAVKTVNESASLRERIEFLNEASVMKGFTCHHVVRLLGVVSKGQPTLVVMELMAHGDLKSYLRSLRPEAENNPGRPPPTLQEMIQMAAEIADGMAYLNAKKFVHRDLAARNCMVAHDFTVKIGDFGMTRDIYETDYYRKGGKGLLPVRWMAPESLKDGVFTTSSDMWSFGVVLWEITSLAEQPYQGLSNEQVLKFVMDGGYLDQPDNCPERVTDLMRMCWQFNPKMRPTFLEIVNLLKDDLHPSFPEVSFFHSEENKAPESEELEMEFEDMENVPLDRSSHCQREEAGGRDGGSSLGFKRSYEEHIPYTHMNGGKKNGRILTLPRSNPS

Sequence | Kd [nM]
FVNQHLCGSHLVEALYLVCGERGFFYTPETEEGPRRGIVEQCCHSICSLEQLENYCN (disulfide 7-43, 19-56, 42-47) [SCI-57PE] | 0.08
FVNQHLCGSHLVEALYLVCGERGFFYTDPTEEGPRRGIVEQCCHSICSLEQLENYCN (disulfide 7-43, 19-56, 42-47) [SCI-57DP] | 0.06
